# Measured values: patent US5120736A, “4-methyl-5-(2-(4-phenylpiperazin-1-yl)ethyl)thiazole derivatives their method of preparation and the pharmaceutical compositions in which they are present” (Institut de Recherches Chimiques et Biologiques Appliquees, priority 1988, dated 1992)
# Read-outs that look alike come from different tables or passages of the source.
# Tests used:
# [1] = Acute toxicity in mice, single oral administration; conditions: mouse, in vivo, male mice, 14 days observation, read-out: LD50 (50 percent lethal dose)
# Experimental: 1) Acute toxicity in mice:
# Principle of the measurement
# The products were administered orally, in a single dose, to male mice with an average weight of 22 g. The mortality was recorded after an observation period of 14 days.
# The results are expressed in the form of the 50% lethal dose (LD50), i.e. the theoretical dose in mg.kg^-1, administered orally, which causes the death of 50% of the animals.
# [2] = molecular target: T1, post-synaptic alpha-adrenergic receptors (isolated rat vas deferens) (Rattus norvegicus, UniProt P43140); assay: alpha-blocking activity towards norepinephrine on isolated rat vas deferens; conditions: norepinephrine contraction, read-out: pA2 (converted)
# T1 construct: isolated rat vas deferens; from tissue; host or cells: isolated rat vas deferens
# T1 sequence (P43140 1-466): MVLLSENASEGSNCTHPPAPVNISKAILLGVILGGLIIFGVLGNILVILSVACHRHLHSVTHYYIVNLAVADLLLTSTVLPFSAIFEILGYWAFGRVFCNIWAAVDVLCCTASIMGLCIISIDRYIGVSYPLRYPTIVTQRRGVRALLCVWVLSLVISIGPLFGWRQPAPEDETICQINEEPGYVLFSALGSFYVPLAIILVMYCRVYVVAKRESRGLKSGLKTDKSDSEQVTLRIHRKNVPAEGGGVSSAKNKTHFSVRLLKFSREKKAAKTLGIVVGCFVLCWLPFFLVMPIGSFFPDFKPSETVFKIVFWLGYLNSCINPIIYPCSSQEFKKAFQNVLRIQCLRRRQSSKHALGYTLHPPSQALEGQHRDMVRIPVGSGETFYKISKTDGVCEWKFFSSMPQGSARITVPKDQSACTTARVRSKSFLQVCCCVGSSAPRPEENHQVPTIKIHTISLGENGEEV
# Experimental: 2) Determination of the alpha-blockinq activity on isolated rat vas deferens
# (§1) a) Principle of the measurement
# Stimulation of the post-synaptic alpha-adrenergic receptors by norepinephrine causes contraction of the isolated vas deferens.
# The concentration of product in whose presence the norepinephrine concentration must be doubled to obtain the same effect as in the absence of said product is determined.
# The logarithm of this concentration, with its sign changed, constitutes the pA2 of the products.
# [3] = system: lethal effect of norepinephrine; assay: adrenolytic activity in vivo in rats towards the lethal effect of norepinephrine; conditions: Rattus norvegicus
# Experimental: 3) Determination of the adrenolytic activity "in vivo" in rats:
# as §1
# The intravenous injection of norepinephrine (0.4 mg.kg^-1) into wake rats causes the death of 100% of the animals. The prior administration of a substance with an alpha-blocking property enables this toxicity to be reduced.
# The results are expressed in the form of the 50% effective dose (ED50), i.e. the dose in mg.kg^-1 which protects 50% of the animals.
# [4] = system: increase in ureteral pressure induced by norepinephrine; assay: inhibitory action on the increase in ureteral pressure induced in rabbits by intravenous norepinephrine; assay type: in vivo, anesthetized male rabbits; conditions: for ED50: Oryctolagus cuniculus, iv, norepinephrine-induced ureteral hyperpressure, read-out: ID50 (50 percent inhibitory dose)
# Experimental: 4) Determination of the inhibitory action of the compounds towards the increase in ureteral pressure induced in rabbits by the intravenous administration of norepinephrine
# as §1
# The ureteral pressure is measured by catheterization of the prostatic ureter of anesthetized male rabbits. The increase in ureteral pressure is induced by an intravenous injection of norepinephrine. This hyperpressure can be inhibited by the prior administration of molecules with alpha-blocking potential.
# These are shown in Table 5 in the form of the 50% inhibitory dose (ID50), which is defined as being the dose of product which, when administered intravenously, causes a 50% inhibition of the ureteral hyperpressure induced by norepinephrine.
# [5] = oral, norepinephrine 0.4 mg.kg^-1 i.v., read-out: ED50 (50 percent effective dose)
SMILES,LD50 at 336 h [1],Kb [2],"ED50 [3, 5]",ED50 [4],"effectiveness against ureteral hyperpressure (in words) ([4]; i.v., in words)","ED50 ([3]; po, prior-art compound, under the same conditions, read-out: ED50)"
Cc1ncsc1CCN1CCN(c2ccccc2OCc2ccccc2)CC1 [B 1425],> 1000 mg/kg,63.1 nM,5 mg/kg,–,–,–
"CCCCCOc1ccccc1N1CCN(CCc2scnc2C)CC1.Cl [B 1357, 4-methyl-5-[2-(4-o-pentoxyphenylpiperazin-1-yl)ethyl]thiazole monohydrochloride]",> 1000 mg/kg,17 nM,1.8 mg/kg,0.46 mg/kg,–,–
"CCCCOc1ccccc1N1CCN(CCc2scnc2C)CC1.Cl [B 1341, 4-methyl-5-[2-(4-o-butoxyphenylpiperazin-1-yl)ethyl]thiazole monohydrochloride]",> 1000 mg/kg,10 nM,1 mg/kg,0.39 mg/kg,–,–
"CCOc1ccccc1N1CCN(CCc2scnc2C)CC1.Cl.Cl.Cl [B 1211, 4-methyl-5-[2-(4-o-ethoxyphenylpiperazin-1-yl)ethyl]thiazole trihydrochloride]",> 1000 mg/kg,26.3 nM,2 mg/kg,0.16 mg/kg,–,–
Cc1ncsc1CCN1CCN(c2ccccc2OCCC(C)C)CC1 [B 1423],> 1000 mg/kg,45.7 nM,2.35 mg/kg,–,–,–
CCCOc1ccccc1N1CCN(CCc2scnc2C)CC1 [B 1359],> 1000 mg/kg,57.5 nM,1.93 mg/kg,–,–,–
"COc1ccccc1N1CCN(CCc2scnc2C)CC1.Cl.Cl.Cl [B 1433, 4-methyl-5-[2-(4-o-methoxyphenylpiperazin-1-yl)ethyl]thiazole trihydrochloride]",> 1000 mg/kg,14.5 nM,2.66 mg/kg,0.3 mg/kg,–,–
Cc1ncsc1CCN1CCN(c2ccccc2OCC(C)(C)C)CC1 [B 1424],> 1000 mg/kg,200 nM,2.04 mg/kg,–,–,–
"Cc1ncsc1CCN1CCN(c2ccccc2OC(C)C)CC1.Cl [B 1398, 4-methyl-5-[2-(4-o-isopropoxyphenylpiperazin-1-yl)ethyl]thiazole monohydrochloride]",> 1000 mg/kg,17 nM,0.44 mg/kg,0.09 mg/kg,remarkably effective,–
Cc1ncsc1CCN1CCN(c2ccccc2OCC(C)C)CC1 [B 1422],> 1000 mg/kg,36.3 nM,1.6 mg/kg,–,–,–
"Cc1ncsc1CCN1CCN(c2ccccc2O)CC1.Cl.Cl [B 1302, 4-methyl-5-[2-(4-o-hydroxyphenylpiperazin-1-yl)ethyl]thiazole dihydrochloride]",490 mg/kg,126 nM,4 mg/kg,0.44 mg/kg,–,–
"Cc1ncsc1CCN1CCN(c2ccccc2)CC1 [4-methyl-5-[2-(4-phenylpiperazin-1-yl)ethyl]thiazole, reference compound]",–,–,–,–,–,8.7 mg/kg
